Assay results taken from article PMC11762957, “Rescue of Mutant CFTR Channel Activity by Investigational Co-Potentiator Therapy” (Biomedicines, 2025).

Experiments:
Type in all cases: cell-based
p.Arg334Trp-CFTR = biological target: T1, p.Arg334Trp-CFTR (Homo sapiens, UniProt P13569, R334W); assay: HS-YFP assay on a plate reader (CFTR-mediated I- influx), CFBE41o- cells co-expressing HS-YFP and p.Arg334Trp-CFTR
T1 construct: expressed in transfected cells
Experimental: Parental CFBE41o^− cells stably expressing HS-YFP (p.His148Gln-Ile152Leu) were cultured in minimum essential medium (MEM, #10-010-CV, Corning, VA, USA) supplemented with 10% fetal bovine serum (#LTI 10270-106, Gibco, Carlsbad, CA, USA). CFBE41o^− cells stably co-expressing HS-YFP (p.Phe46Leu-His148Gln-Ile152Leu) and p.Arg334Trp-CFTR were cultured in a similar medium including 2 µg mL^−1 puromycin (#P8833, Sigma-Aldrich, St. Louis, MO, USA). For the YFP assay of CFTR activity, cells were plated (30,000 cells/well) on 96-well clear-bottom, black-walled microplates (#655090, Greiner Bio-One, Kremsmünster, Austria). All cells were maintained in a humidified incubator (5% CO2) at 37 °C.
CFTR activity was determined by the HS-YFP microfluorimetric assay (described in detail in previous studies) using CFBE41o^− cells expressing HS-YFP together with stably expressed p.Arg334Trp-CFTR or transiently transfected with CFTR cDNA (variants p.Pro205Ser, p.Ser549Arg, p.Gly551Asp, p.Ser945Leu, and p.Gly1349Asp) cloned into pcDNA5. Briefly, cells were washed with phosphate-buffered saline (PBS; in mM: 137 NaCl, 2.7 KCl, 8.1 Na2HPO4, 1.5 KH2PO4, 1 CaCl2, and 0.5 MgCl2) and then incubated for 30 min at 37 °C with 60 μL of PBS plus Fsk (5 μM) and test compound(s) to stimulate CFTR channels. DMSO (vehicle) and VX-770 (1 μM) were used as negative and positive controls, respectively. All conditions were performed in triplicate on each plate. Thereafter, cells were transferred to a microplate reader (Tecan Infinite 200 Pro) equipped with high-quality excitation (485 ± 20 nm) and emission (535 ± 25 nm) filters for YFP. Each reading consisted of a continuous 14 s fluorescence recording with 2 s before and 12 s after injection of 165 μL of an iodide-containing solution (PBS with Cl^− replaced by I^−; final I^− concentration: 100 mM). Data were normalized to the initial background-subtracted fluorescence. To determine the I^− influx rate, the final 11 s of the data for each well were fitted with an exponential function to extrapolate the initial slope (dF/dt).
All the compounds (Scheme 1) were tested in CFBE41o^− cells co-expressing HS-YFP and p.Arg334Trp-CFTR to assess CFTR-mediated I^− influx based on fluorescence quenching. The cells were incubated for 30 min with Fsk (an adenyl cyclase activator that increases intracellular cAMP levels) plus the test compounds in two different concentrations (3 and 20 μM). Thereafter, the efficacy of the compounds in rescuing CFTR activity was determined by the YFP quenching rate and normalized to DMSO (negative control). […] Such an increase was equivalent to that of the cells treated with VX-770 or apigenin (used as positive controls).
Next, the active compounds were submitted for further analysis for evaluation of their potency and efficacy. To this aim, the compounds were retested as potentiators at various concentrations in the range 0.16–30 μM with Fsk on CFBE41o^− cells.

p.Ser549Arg-CFTR = biological target: T2, p.Ser549Arg-CFTR (Homo sapiens, UniProt P13569, S549R); assay: HS-YFP assay, CFBE41o- cells transiently transfected with p.Ser549Arg-CFTR; conditions: c.1645A>C or c.1647T>G, Fsk 5 μM
T2 construct: expressed in transfected cells; host or cells: CFBE41o- cells stably expressing HS-YFP, transient transfection of pcDNA5-CFTR
Experimental: (§1) Site-directed mutagenesis was performed using KOD HOT start DNA polymerase (#71086-3, Sigma-Aldrich, St. Louis, MO, USA), according to manufacturer’s instructions, to insert variants under study (c.613C>T or p.Pro205Ser; c.1645A>C or p.Ser549Arg; c.1647T>G or p.Ser549Arg; c.1652G>A or p.Gly551Asp; c.2834C>T or p.Ser945Leu; and c.4046G>A or p.Gly1349Asp) into CFTR cDNA cloned in the pcDNA5 expression vector. After confirmation by Sanger sequencing, CFBE41o^− cells expressing HS-YFP seeded onto 96-well plates were transfected with 0.1 µg per well of the indicated plasmid. Lipofectamine 3000 (#L3000015, ThermoFischer Scientific, Waltham, MA, USA) was used as the transfection agent diluted in Opti-MEM reduced serum medium (#31985070, ThermoFischer Scientific, Waltham, MA, USA) according to manufacturer’s instructions.
(§2) CFTR activity was determined by the HS-YFP microfluorimetric assay (described in detail in previous studies) using CFBE41o^− cells expressing HS-YFP together with stably expressed p.Arg334Trp-CFTR or transiently transfected with CFTR cDNA (variants p.Pro205Ser, p.Ser549Arg, p.Gly551Asp, p.Ser945Leu, and p.Gly1349Asp) cloned into pcDNA5. […] Thereafter, cells were transferred to a microplate reader (Tecan Infinite 200 Pro) equipped with high-quality excitation (485 ± 20 nm) and emission (535 ± 25 nm) filters for YFP. Each reading consisted of a continuous 14 s fluorescence recording with 2 s before and 12 s after injection of 165 μL of an iodide-containing solution (PBS with Cl^− replaced by I^−; final I^− concentration: 100 mM). Data were normalized to the initial background-subtracted fluorescence. […]
(§3) As CFTR variants with similar defect(s) may respond differently to the same treatment(s), we assessed whether LSO-24 or its derivative LSO-150, alone or in combination(s), could rescue CFTR activity for other variants with gating/conductance defects. […] After 24 h, the cells were acutely stimulated with Fsk plus test compound(s), and the cell fluorescence was recorded before and after the addition of an I^−-containing solution. […]

p.Gly551Asp-CFTR = biological target: T3, p.Gly551Asp-CFTR (Homo sapiens, UniProt P13569, G551D); assay: HS-YFP assay, CFBE41o- cells transiently transfected with p.Gly551Asp-CFTR; conditions: LSO-24 5 μM, LSO-150 3 μM, VX-770 1 μM, ABBV-3067 10 μM, Fsk 5 μM
T3 construct: expressed in transfected cells; host or cells: CFBE41o- cells stably expressing HS-YFP, transient transfection of pcDNA5-CFTR
Experimental: as §1, §2, §3

p.Ser945Leu-CFTR = biological target: T4, p.Ser945Leu-CFTR (Homo sapiens, UniProt P13569, S945L); assay: HS-YFP assay, CFBE41o- cells transiently transfected with p.Ser945Leu-CFTR; conditions: LSO-24 5 μM, LSO-150 3 μM, Fsk 5 μM
T4 construct: expressed in transfected cells; host or cells: CFBE41o- cells stably expressing HS-YFP, transient transfection of pcDNA5-CFTR
Experimental: as §1, with “Lipofectamine 3000 (#L3000015, ThermoFischer Scientific, Waltham, MA, USA) was used as the transfection agent diluted in Opti-MEM reduced serum medium (#31985070, ThermoFischer Scientific, Waltham, MA, USA) according to manufacturer’s instructions.” left out
as §2

T1 sequence (P13569 whole entry R334W): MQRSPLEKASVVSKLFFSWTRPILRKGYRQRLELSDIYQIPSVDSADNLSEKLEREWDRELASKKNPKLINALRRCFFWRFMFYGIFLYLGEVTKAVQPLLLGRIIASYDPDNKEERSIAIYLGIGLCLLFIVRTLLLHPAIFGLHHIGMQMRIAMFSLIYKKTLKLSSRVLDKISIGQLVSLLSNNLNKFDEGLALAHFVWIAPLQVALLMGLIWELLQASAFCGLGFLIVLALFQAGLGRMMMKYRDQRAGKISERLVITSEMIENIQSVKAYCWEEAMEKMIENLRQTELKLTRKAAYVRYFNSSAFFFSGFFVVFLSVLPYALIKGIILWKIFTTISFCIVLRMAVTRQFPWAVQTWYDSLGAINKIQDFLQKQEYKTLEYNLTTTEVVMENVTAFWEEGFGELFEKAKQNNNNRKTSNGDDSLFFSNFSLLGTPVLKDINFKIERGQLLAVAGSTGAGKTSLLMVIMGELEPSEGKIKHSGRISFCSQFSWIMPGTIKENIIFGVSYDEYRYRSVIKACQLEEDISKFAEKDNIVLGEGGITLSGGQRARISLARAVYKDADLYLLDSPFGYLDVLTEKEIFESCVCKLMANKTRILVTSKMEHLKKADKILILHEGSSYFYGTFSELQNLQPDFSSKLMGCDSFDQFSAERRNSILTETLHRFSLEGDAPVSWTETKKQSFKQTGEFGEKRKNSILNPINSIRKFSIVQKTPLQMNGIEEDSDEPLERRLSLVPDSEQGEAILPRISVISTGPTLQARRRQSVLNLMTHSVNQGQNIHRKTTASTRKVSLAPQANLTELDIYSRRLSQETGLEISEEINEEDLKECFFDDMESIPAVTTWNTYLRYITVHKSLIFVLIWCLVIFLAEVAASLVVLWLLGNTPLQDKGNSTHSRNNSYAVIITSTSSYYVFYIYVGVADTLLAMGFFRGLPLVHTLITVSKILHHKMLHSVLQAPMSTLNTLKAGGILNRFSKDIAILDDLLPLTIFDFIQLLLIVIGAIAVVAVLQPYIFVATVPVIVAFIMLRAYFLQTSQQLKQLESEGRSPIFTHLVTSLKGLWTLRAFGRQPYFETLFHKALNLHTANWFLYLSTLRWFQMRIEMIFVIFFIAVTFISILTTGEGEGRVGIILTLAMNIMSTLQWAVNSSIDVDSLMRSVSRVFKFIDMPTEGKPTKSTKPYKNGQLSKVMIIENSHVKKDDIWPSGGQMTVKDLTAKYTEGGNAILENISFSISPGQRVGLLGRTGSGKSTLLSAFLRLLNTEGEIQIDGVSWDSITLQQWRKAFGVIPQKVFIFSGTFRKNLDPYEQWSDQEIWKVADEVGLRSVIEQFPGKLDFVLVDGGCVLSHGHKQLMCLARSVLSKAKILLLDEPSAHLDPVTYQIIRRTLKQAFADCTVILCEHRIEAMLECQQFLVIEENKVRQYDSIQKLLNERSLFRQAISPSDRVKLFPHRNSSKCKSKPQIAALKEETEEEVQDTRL
T2 sequence (P13569 whole entry S549R): as the sequence (P13569 whole entry R334W) above, with W334R, S549R counted along it
T3 sequence (P13569 whole entry G551D): as the sequence (P13569 whole entry R334W) above, with W334R, G551D counted along it
T4 sequence (P13569 whole entry S945L): as the sequence (P13569 whole entry R334W) above, with W334R, S945L counted along it

## CCOC(=O)c1ccc(-n2cc(C(O)c3ccc(Br)cc3)nn2)cc1 (centres unmarked) [LSO-150]
p.Arg334Trp-CFTR; CFBE41o- cells, with Fsk, concentrations 0.16–30 μM, read-out: EC50 (potentiation of p.Arg334Trp-CFTR activity)
  EC50: 1.01 µM
p.Arg334Trp-CFTR; LSO-150 3 μM or LSO-153 5 μM + ABBV-974 10 μM, Fsk 5 μM, vs single potentiator
  Fluorescence quenching rate in combination with ABBV-974: further increase in the fluorescence quenching rate
p.Arg334Trp-CFTR; LSO-150 3 μM or LSO-153 5 μM + ABBV-3067 10 μM, Fsk 5 μM, vs single potentiator
  Fluorescence quenching rate in combination with ABBV-3067: further increase in the fluorescence quenching rate
p.Arg334Trp-CFTR; LSO-150 3 μM or LSO-153 5 μM + VX-770 1 μM, Fsk 5 μM, vs single potentiator
  Fluorescence quenching rate in combination with VX-770: further increase in the fluorescence quenching rate
p.Arg334Trp-CFTR; LSO-150 3 μM or LSO-153 5 μM + apigenin 50 μM, Fsk 5 μM, vs single potentiator
  Fluorescence quenching rate in combination with apigenin: equivalent cell-fluorescence quenching rate to that of each compound individually
p.Arg334Trp-CFTR; test compound 3 and 20 μM, 30 min with Fsk 5 μM, vs DMSO
  CFTR-mediated I- influx (YFP quenching rate normalized to DMSO): increase in CFTR-mediated I^− influx
p.Ser549Arg-CFTR; + ABBV-3067 10 μM
  Net effect with co-administration of ABBV-3067: increased
p.Ser549Arg-CFTR; + VX-770 1 μM
  Net effect with co-administration of VX-770: increased
p.Ser549Arg-CFTR; LSO-24 5 μM, LSO-150 3 μM
  CFTR activity (fluorescence quenching rate), single compound: increased CFTR activity
p.Gly551Asp-CFTR
  CFTR activity (fluorescence quenching rate), single compound: increased CFTR activity
p.Ser945Leu-CFTR
  CFTR activity (fluorescence quenching rate), single compound: increased CFTR activity
